Measurements from patent publication US4885239A, “Rapid differentiation of bacteria using polyether antibiotics” (Eastman Kodak Company, priority 1986, dated 1989).

Columns and labels:
[1] = test system: E. coli (gram -); assay: inhibition of the reduction of RIND XXXV (Examples 8 and 9), E. coli; format: cell-based, Escherichia coli (ATCC 25922); details: 50 μl of 10 mg/ml antibiotic premixed with 1 ml cells (septamycin with calcium chloride), 30 minutes, 37° C., average of two replicates
Method: (§1) gram-negative bacteria Enterobacter cloacae (ATCC 23355), Escherichia coli (ATCC 25922), Proteus vulgaris (ATCC 13315), Klebsiella pneumoniae (ATCC 13883) and Pseudomonas aeruginosa (ATCC 27853), and gram-positive bacteria Staphylococcus aureus (ATCC 25923) and Streptococcus pyogenes (ATCC 19615), and brain heart infusion (BHI) broth from Difco Laboratories (Detroit, Mich.),
(§2) Bacterial suspensions were prepared by growing the cells in BHI to stationary phase overnight at 37° C. P. aeruginosa was grown with agitation. […]
(§3) Optical density readings (OD) were made at 635 nm at 0 minutes and after incubation at 37° C. for 30 minutes for all solutions, and the change (ΔOD) was determined. Table V below lists the results expressed as corrected percent inhibition of the reduction of RIND VII. The corrected percent inhibition was calculated by dividing the difference between ΔOD obtained from a Control test without antibiotic and the ΔOD of the test, by the ΔOD of the Control without antibiotic. All readings were corrected by subtracting readings of the appropriate background control. […]
(§4) Relative fluorescence was measured at an emission of 620 nm after excitation at 540 nm using a […] microfluor Reader, and the change in fluorescence (Δ relative fluorescence) after 30 minutes at 37° C. was determined as the average of two replicates.

[2] = test system: S. aureus (gram +); assay: inhibition of the reduction of RIND XXXV (Examples 8 and 9), S. aureus; format: cell-based, Staphylococcus aureus (ATCC 25923); details: 50 μl of 10 mg/ml antibiotic premixed with 1 ml cells (septamycin with calcium chloride), 30 minutes, 37° C., average of two replicates
Method: as §1, §2, §3, §4

[3] = test system: viable gram-positive and gram-negative bacteria; assay: differentiation of viable gram-positive and gram-negative bacteria (outcome in words); format: cell-based; details: for differentiation of gram-positive and gram-negative bacteria: RIND XXXV, Examples 8 and 9; for differentiating gram-positive and gram-negative bacteria: RIND VII, Examples 2-3
Method: as §1
(§5) Bacterial suspensions were prepared by growing the cells in BHI to stationary phase overnight at 37° C. P. aeruginosa was grown with agitation. About 40 ml of overnight cultures were centrifuged, decanted and washed once with 0.05 molar potassium phosphate buffer or 0.05 molar N-2-hydroxyethylpiperazine-N'-2-ethanesulfonic acid (HEPES) buffer, pH 7.8, and resuspended in buffer.
TERGITOL 7 anionic surfactant was used to differentiate viable bacteria according to the prior art method. Various concentrations of TERGITOL 7 surfactant were mixed with a 10% glucose solution (50 μl), 3-(4,5-dimethyl-2-thiazolyl)-2,5-diphenyl-2N-tetrazolium bromide (MTT) in methanol (25 μl at 5 mg/ml) or a RIND VII dispersion (1.5 ml) and phenazine methosulfate ETA (25 μl at 3 mg/ml methanol). The volume of each test solution was brought to 3 ml with potassium phosphate buffer. A cell suspension (100 μl at about 10^8 cells/ml) was then added. The solutions were incubated at 37° C. for 15 and 30 minutes in the presence of either E. coli, a gram (-) bacterium, or S. aureus, a gram (+) bacterium. The amount of dye formed was then determined visually and graded as follows: 0 indicates no dye formation, +/- indicates faint dye formation, 1+ indicates light dye formation, 2+ indicates moderate dye formation, 3+ indicates strong dye formation, and 4+ indicates very strong dye formation.
Calimycin, a polyether antibiotic, was similarly used with RIND VII in the differentiation of bacteria. Assays were performed as described above, except that 25 μl of 1 molar calcium chloride solution was added to each test solution and the P. aeruginosa response was measured in the presence of 10% yeast extract as the carbon source instead of glucose. The final concentration of calimycin in each test was 10^-3 molar.
(§6) The test solutions were prepared by adding the following, in order: 1.2 ml HEPES, 50 μl glucose solution, 1.5 ml RIND VII dispersion, 100 μl antibiotic solution, 100 μl cell suspension and 25 μl ETA solution. Cell control solutions contained all reagents except antibiotics. Background Controls consisted of both buffer and solution controls. The buffer control contained all reagents except antibiotics and cells. The solution control contained all reagents except cells.
(§7) Optical density readings (OD) were made at 635 nm at 0 minutes and after incubation at 37° C. for 30 minutes for all solutions, and the change (ΔOD) was determined. Table V below lists the results expressed as corrected percent inhibition of the reduction of RIND VII. The corrected percent inhibition was calculated by dividing the difference between ΔOD obtained from a Control test without antibiotic and the ΔOD of the test, by the ΔOD of the Control without antibiotic. All readings were corrected by subtracting readings of the appropriate background control.
Relative fluorescence was measured using a standard spectrophotometer modified to read at excitation of 540 nm and emission of 620 nm. The change (Δ) in relative fluorescence was determined after 30 minutes at 37° C. for several concentration levels of antibiotic.
Optical density measurements were obtained at 540 nm using a standard spectrophotometer and the change in optical density (ΔOD) was determined after 30 minutes at 37° C. The resulting data are shown in Table VII below for several concentrations of antibiotic. It is clear from the data that the composition of this example was useful for differentiating bacteria. […]

[4] = test system: E. coli (gram -); assay: inhibition of the reduction of RIND VII (solution assay, Examples 2-3), E. coli; format: cell-based, Escherichia coli (ATCC 25922); details: 635 nm, 30 minutes, 37° C.
Method: as §1, §5
(§8) A dispersion containing a RIND compound was prepared by dissolving RIND VII from Table II above in N,N-dimethylformamide (DMF) at 16 mg compound per ml of solvent. An aliquot (250 μl) of the resulting solution was added to 500 μl of TRITON X-100 surfactant. This mixture was then added dropwise with stirring to 25 ml of 0.05 molar HEPES buffer. A solution containing a water-compatible RIND compound XXXV was prepared by dissolving the compound (16 mg/ml) in N,N-dimethylformamide which had been acidified with a 0.1% sulfuric acid solution.
(§9) The following materials were used in these examples: stock dispersion of RIND VII as described above, glucose (10% in water), trimethyl-1,4-benzoquinone ETA (1.5 mg/ml methanol), each antibiotic at 1, 5, and 10 mg/ml methanol. Microbial cells were grown as described above. The final approximate cell concentrations were: 1.4×10^7 cells/ml for E. coli and 2.4×10^7 cells/ml for S. aureus.
as §6, §7

[5] = test system: S. aureus (gram +); assay: inhibition of the reduction of RIND VII (solution assay, Examples 2-3), S. aureus; format: cell-based, Staphylococcus aureus (ATCC 25923); details: 635 nm, 30 minutes, 37° C.
Method: as §1, §5, §8, §9, §6, §7

[6] = E1/2 (reduction potential) of the quinone nucleus of RIND compounds; format: physicochemical; details: quinone nucleus with hydrogen in place of the side chain
Description: Examples of such nuclei are presented below. […] Preferably, the E1/2 is from about +100 mV to about +400 mV as measured in water, or from about -650 to about -300 mV as measured in acetonitrile. […] Further details of measuring the E1/2 are described below prior to Table I. The desired E1/2 is achieved by appropriate electron withdrawing groups on the CAR--nucleus, or by a strained fused ring attached to the nucleus or a combination of both.
A standard calomel electrode was used as a standard. Some E1/2 values (denoted by *) were measured in acetonitrile using a saturated calomel electrode as a standard. E1/2 values not available are denoted by "NA".

[7] = aqueous emulsion, DMF, TRITON X-100, sodium phosphate buffer pH 7, calomel electrode
[8] = (*) in acetonitrile, saturated calomel electrode

Compound: COC1CCC(OC2C(C)C(O)(C(C)C(=O)O)OC(CC3CC(OC)C(C)C4(O3)OC(C)(C3CCC(C5CCC(C6OC(C)(O)C(C)C(OC)C6C)O5)O3)C(OC)C4C)C2(C)OC)OC1C (stereo not drawn) [Antibiotic A204]
- Corrected Percent Inhibition [1]: 3.6%
- Corrected Percent Inhibition [2]: 35.8%
- differentiation of gram-positive and gram-negative bacteria [3]: useful for differentiation of gram-positive and gram-negative bacteria

Compound: CC[C@@H](C(=O)[C@@H](C)[C@@H](O)[C@H](C)CCc1ccc(C)c(O)c1C(=O)O)[C@H]1O[C@](CC)([C@H]2CC[C@](O)(CC)[C@H](C)O2)C[C@@H]1C [Lasalocid, lasalocid]
- Corrected Percent Inhibition ([4]; antibiotic 0.033 mg/ml): 6.6%
- Corrected Percent Inhibition ([4]; antibiotic 0.166 mg/ml): 10.5%
- Corrected Percent Inhibition ([4]; antibiotic 0.333 mg/ml): 25.5%
- Corrected Percent Inhibition ([5]; antibiotic 0.033 mg/ml): 35.2%
- Corrected Percent Inhibition ([5]; antibiotic 0.166 mg/ml): 50.9%
- Corrected Percent Inhibition ([5]; antibiotic 0.333 mg/ml): 60.1%
- differentiating gram-positive and gram-negative bacteria [3]: effective in differentiating gram-positive and gram-negative bacteria

Compound: CC[C@@]1([C@@H]2O[C@@H]([C@H]3O[C@@](O)(CO)[C@H](C)C[C@@H]3C)C[C@@H]2C)CC[C@H]([C@]2(C)CC[C@]3(C[C@H](O)[C@@H](C)[C@@H]([C@@H](C)[C@@H](OC)[C@H](C)C(=O)O)O3)O2)O1 [Monensin, monensin A]
- Corrected Percent Inhibition ([4]; antibiotic 0.033 mg/ml): 5.1%
- Corrected Percent Inhibition ([4]; antibiotic 0.166 mg/ml): No inhibition
- Corrected Percent Inhibition ([4]; antibiotic 0.333 mg/ml): No inhibition
- Corrected Percent Inhibition ([5]; antibiotic 0.033 mg/ml): 34.4%
- Corrected Percent Inhibition ([5]; antibiotic 0.166 mg/ml): 43.0%
- Corrected Percent Inhibition ([5]; antibiotic 0.333 mg/ml): 42.0%
- differentiating gram-positive and gram-negative bacteria [3]: effective in differentiating gram-positive and gram-negative bacteria

Compound: CC(C1=C(CN(C)C(=O)Oc2ccc(N=Nc3ccc([N+](=O)[O-])cc3S(C)(=O)=O)c3c(NS(=O)(=O)c4cccc(S(N)(=O)=O)c4)cccc23)C(=O)C(C(C)c2ccc([N+](=O)[O-])cc2)=C(CN(C)C(=O)Oc2ccc(N=Nc3ccc([N+](=O)[O-])cc3S(C)(=O)=O)c3c(NS(=O)(=O)c4cccc(S(N)(=O)=O)c4)cccc23)C1=O)c1ccc([N+](=O)[O-])cc1 (stereo not drawn) [RIND II]
- E1/2 [6, 7]: +236 mV

Compound: CN(CC1=C(c2ccccc2)C(=O)C(CN(C)C(=O)Oc2ccc(N=Nc3ccc([N+](=O)[O-])cc3S(C)(=O)=O)c3c(NS(=O)(=O)c4cccc(S(N)(=O)=O)c4)cccc23)=C(c2ccccc2)C1=O)C(=O)Oc1ccc(N=Nc2ccc([N+](=O)[O-])cc2S(C)(=O)=O)c2c(NS(=O)(=O)c3cccc(S(N)(=O)=O)c3)cccc12 [RIND IV]
- E1/2 [6, 8]: -460 mV

Compound: CCCCCCCCCCNS(=O)(=O)c1ccc(C(C)C2=C(CN(C)C(=O)Oc3ccc(N=Nc4ccc([N+](=O)[O-])cc4S(C)(=O)=O)c4c(NS(=O)(=O)c5cccc(S(N)(=O)=O)c5)cccc34)C(=O)C(C(C)c3ccc(S(=O)(=O)NCCCCCCCCCC)cc3)=C(CN(C)C(=O)Oc3ccc(N=Nc4ccc([N+](=O)[O-])cc4S(C)(=O)=O)c4c(NS(=O)(=O)c5cccc(S(N)(=O)=O)c5)cccc34)C2=O)cc1 (stereo not drawn) [RIND I]
- E1/2 [6, 8]: -528 mV

Compound: CN(CC1=C(c2ccc(C#N)cc2)C(=O)C2=C(C1=O)C1C=CC2CC1)C(=O)Oc1ccc(N=Nc2ccc([N+](=O)[O-])cc2S(C)(=O)=O)c2c(NS(=O)(=O)c3cccc(S(N)(=O)=O)c3)cccc12 (stereo not drawn) [RIND XVII]
- E1/2 [6, 7]: +240 mV

Compound: CCCCCCCCCCNS(=O)(=O)c1ccc(C(C)C2=C(CN(C)C(=O)Oc3ccc4c(C)cc(=O)oc4c3)C(=O)C(C(C)c3ccc(S(=O)(=O)NCCCCCCCCCC)cc3)=C(CN(C)C(=O)Oc3ccc4c(C)cc(=O)oc4c3)C2=O)cc1 (stereo not drawn) [RIND XXII]
- E1/2 [6, 8]: -528 mV

Compound: CCCCCCCCCCNS(=O)(=O)c1ccc(C(C)C2=C(CN(C)C(=O)Oc3ccc(N=Nc4cccc(S(N)(=O)=O)c4)c4c(NS(C)(=O)=O)cccc34)C(=O)C(C(C)c3ccc(S(=O)(=O)NCCCCCCCCCC)cc3)=C(CN(C)C(=O)Oc3ccc(N=Nc4cccc(S(N)(=O)=O)c4)c4c(NS(C)(=O)=O)cccc34)C2=O)cc1 (stereo not drawn) [RIND XXI]
- E1/2 [6, 8]: -528 mV

Compound: CC1=C(C)C(=O)C(c2ccccc2)=C(CN(C)C(=O)Oc2ccc(N=Nc3ccc([N+](=O)[O-])cc3S(C)(=O)=O)c3c(NS(=O)(=O)c4cccc(S(N)(=O)=O)c4)cccc23)C1=O [RIND XXXVI]
- E1/2 [6, 7]: +144 mV

Compound: CO[C@H]1C[C@@H](C[C@H]2O[C@@](O)([C@H](C)C(=O)O)[C@H](C)[C@H](OC)[C@@]2(C)O[C@H]2CC[C@@H](OC)[C@H](C)O2)O[C@]2(O[C@@](C)([C@@H]3CC[C@H]([C@H]4CC[C@H]([C@H]5O[C@](C)(O)[C@H](C)C[C@@H]5C)O4)O3)[C@H](OC)[C@H]2C)[C@@H]1C [Septamycin, septamycin]
- Corrected Percent Inhibition [1]: 52.3%
- Corrected Percent Inhibition [2]: 74.9%
- differentiation of gram-positive and gram-negative bacteria [3]: useful for differentiation of gram-positive and gram-negative bacteria
